Reference: patent US9789058B2, “Ophthalmic composition for the treatment of ocular infection” (CooperVision International Holding Company, LP, priority 2014, dated 2017)
In brackets after ≈: the same amount, converted by molar mass. Read-outs that look alike come from different tables or passages of the source.

Legend:
[1] = test system: methicillin-resistant S. aureus (MRSA); assay: Broth microdilution susceptibility (MIC), MRSA isolates; format: cell-based, Staphylococus aureus; settings: for MIC / MIC50 / MIC90 / Maximum (MIC) / Minimum (MIC): MRSA, N=25 isolates
Description: (§1) The MIC50 and MIC90 of εPL against methicillin-sensitive Staphylococus aureus) and MRSA were determined in these studies. (The “Minimum”, “Maximum”, and MIC50 and MIC90 in the Table are provided in units of μg/ml.) Other antimicrobial agents such as tobramycin, moxifloxacin, and PHMB (polyhexamethylene biguanid) were included for comparison. Broth microdilution tests were performed in accordance with the Clinical and Laboratory Standards Institute (CLSI) (M07-A9, Vol. 32 No. 2, January, 2012) for aerobic and facultative anaerobic strains. Cation-adjusted Mueller-Hinton broth was used for testing staphylococci species.

[2] = test system: methicillin-susceptible S. aureus (MSSA); assay: Broth microdilution susceptibility (MIC), MSSA isolates; format: cell-based, Staphylococus aureus; settings: N=25 isolates
Description: as §1

[3] = Ocular toxicity study in rabbits; format: in vivo
Description: Rabbits were divided into three treatment groups, each was treated with increasing concentrations of εPL (50, 150, and 500 μg/mL) in phosphate buffered saline (PBS) at pH 7.3. Specifically, rabbits from each group were dosed with a drop of εPL solution in the left eye of a rabbit eight times during a seven-hour period. The right eye was dosed with PBS. Macroscopic examinations were performed prior to the first dose, and 10 minutes following each dose. Slit lamp microscopic examinations were performed prior to the first dose and at termination. Ocular tissues were collected at termination and submitted for histological evaluation.
During the dosing period, there were some sporadic occurrences of conjunctival discharge as observed by macroscopic examination. However, they were equally divided between εePL-treated and PBS-treated eyes.

[4] = test system: MRSA strain K-950; assay: Time-kill study (bactericidal activity); format: cell-based, Staphylococus aureus; settings: for decrease of MRSA colony counts: 8 hours post-inoculation
Description: The bactericidal activity of εPL against MRSA strain K-950 was evaluated. […] Test tubes containing 0.5 mL of εPL at 0.25 μg/mL, 1.0 μg/mL, 4.0 μg/mL or 16.0 μg/mL εPL in Mueller Hinton broth growth media and approximately 10^6 CFU/mL of K-950 were incubated at 37° C. After 1, 2, 4, 6, 8 and 24 hours of incubation, the test tubes were removed and colony forming units were calculated. To calculate CFU, 100 μL of the medium was removed from a tube and serially diluted (1:10 dilutions) in the medium. Aliquots of 100 μL of each dilution were plated, in duplicate, onto TSA agar plates containing 5% sheep's blood. The plates were incubated at 37° C. overnight and the colonies were counted the next day.

[5] = Staphylococcus aureus, cation-adjusted Mueller-Hinton broth, read-out: Minimum (MIC)
[6] = Staphylococcus aureus, read-out: MIC50
[7] = Staphylococcus aureus, read-out: MIC90
[8] = Staphylococcus aureus, read-out: Maximum (MIC)
[9] = cation-adjusted Mueller-Hinton broth

Molecule: COc1c(N2C[C@@H]3CCCN[C@@H]3C2)c(F)cc2c(=O)c(C(=O)O)cn(C3CC3)c12 [Moxifloxacin, moxifloxacin]
- MIC [1, 5]: 0.03 µg/mL (≈ 0.0747 µM)
- MIC50 [1, 6]: 1 µg/mL (≈ 2.49 µM)
- MIC90 [1, 7]: 4 µg/mL (≈ 9.96 µM)
- MIC [1, 8]: 8 µg/mL (≈ 19.9 µM)
- MIC [2, 5]: 0.03 µg/mL (≈ 0.0747 µM)
- MIC50 [2, 6]: 0.06 µg/mL (≈ 0.149 µM)
- MIC90 [2, 7]: 1 µg/mL (≈ 2.49 µM)
- MIC [2, 8]: 1 µg/mL (≈ 2.49 µM)

Molecule: NC[C@H]1O[C@H](O[C@H]2[C@H](O)[C@@H](O[C@H]3O[C@H](CO)[C@@H](O)[C@H](N)[C@H]3O)[C@H](N)C[C@@H]2N)[C@H](N)C[C@@H]1O [Tobramycin, tobramycin]
- MIC [1, 5]: 0.12 µg/mL (≈ 0.257 µM)
- MIC50 [1, 6]: 0.5 µg/mL (≈ 1.07 µM)
- MIC90 [1, 7]: 64 µg/mL (≈ 137 µM)
- MIC [1, 8]: 64 µg/mL (≈ 137 µM)
- MIC [2, 5]: 0.12 µg/mL (≈ 0.257 µM)
- MIC50 [2, 6]: 0.25 µg/mL (≈ 0.535 µM)
- MIC90 [2, 7]: 1 µg/mL (≈ 2.14 µM)
- MIC [2, 8]: 1 µg/mL (≈ 2.14 µM)

Molecule: polyhexamethylene biguanid [PHMB]
- MIC50 [1]: 2 µg/mL
- MIC90 [1]: 2 µg/mL
- Maximum (MIC) [1]: 4 µg/mL
- Minimum (MIC) [1, 9]: 1 µg/mL
- MIC50 [2]: 2 µg/mL
- MIC90 [2]: 2 µg/mL
- Maximum (MIC) [2]: 2 µg/mL
- Minimum (MIC) [2, 9]: 1 µg/mL

Molecule: ε-polylysine [εPL]
- MIC50 [1]: 4 µg/mL
- MIC90 [1]: 8 µg/mL
- Maximum (MIC) [1]: 8 µg/mL
- Minimum (MIC) [1, 9]: 4 µg/mL
- MICs range ([1]; all 50 isolates tested (MSSA and MRSA)): 4 to 8 µg/mL
- MIC50 [2]: 8 µg/mL
- MIC90 [2]: 8 µg/mL
- Maximum (MIC) [2]: 8 µg/mL
- Minimum (MIC) [2, 9]: 4 µg/mL
- slit lamp microscopic examination and histologic findings ([3]; rabbits, 50, 150 and 500 μg/mL, eight doses in seven hours): did not reveal any abnormality
- ocular tolerability ([3]; rabbits, one drop in the eye eight times during a seven-hour period, concentrations up to 500 μg/mL in PBS pH 7.3): well tolerated
- effect on the colony counts [4]: no effect
- Colony Counts ([4]; 0.25X MIC (1 μg/ml), 0 Hours): 4.65 × 10^5 CFU/ml
- Colony Counts ([4]; 0.25X MIC (1 μg/ml), 1 Hour): 3.90 × 10^5 CFU/ml
- Colony Counts ([4]; 0.25X MIC (1 μg/ml), 2 Hours): 9.75 × 10^5 CFU/ml
- Colony Counts ([4]; 0.25X MIC (1 μg/ml), 4 Hours): 2.95 × 10^7 CFU/ml
- Colony Counts ([4]; 0.25X MIC (1 μg/ml), 6 Hours): 5.90 × 10^6 CFU/ml
- Colony Counts ([4]; 0.25X MIC (1 μg/ml), 8 Hours): 1.19 × 10^7 CFU/ml
- Colony Counts ([4]; 0.25X MIC (1 μg/ml), 24 Hours): 1.19 × 10^8 CFU/ml
- Colony Counts ([4]; 1X MIC (4 μg/ml), 4 Hours): 6.30 × 10^4 CFU/ml
- Colony Counts ([4]; 4X MIC (16 μg/ml), 0 Hours): 4.55 × 10^5 CFU/ml
- Colony Counts ([4]; 4X MIC (16 μg/ml), 1 Hour): 4.25 × 10^5 CFU/ml
- Colony Counts ([4]; 4X MIC (16 μg/ml), 2 Hours): 8.45 × 10^4 CFU/ml
- Colony Counts ([4]; 4X MIC (16 μg/ml), 4 Hours): 1.92 × 10^3 CFU/ml
- Colony Counts ([4]; 4X MIC (16 μg/ml), 6 Hours): 2.10 × 10^2 CFU/ml
- Colony Counts ([4]; 4X MIC (16 μg/ml), 8 Hours): 3.00 × 10^1 CFU/ml
- Colony Counts ([4]; 4X MIC (16 μg/ml), 24 Hours): 7.10 × 10^3 CFU/ml
- decrease of MRSA colony counts ([4]; 4 times the MIC (16.0 μg/ml)): more than 3 logs
- MIC of the tested strain ([4]; MRSA strain K-950): 4.0 µg/mL
- decrease of MRSA colony counts ([4]; at MIC): 2.4 Log
- action against MRSA ([4]; time-kill study, MRSA K-950): bactericidal
